From publication PMC3693772, “Protein expression, biochemical pharmacology of signal transduction, and relation to intraocular pressure modulation by bradykinin B2 receptors in ciliary muscle” (Molecular Vision, 2013)
“And” between values parts separate entries of the source, which are not always exact repeats. Equal values may be shown once. “Also recorded” adds a separate entry of the source. Read-outs that look alike come from different tables or passages of the source.

Legend:
[1] = system: certain endothelial and neuronal cells; conditions: ref [3],[28]; cited from earlier work
h-CM cells = format: cell-based, human; conditions: 1 h at 37 °C; enzyme immunoassay; mean ± SEM, 3 to 6 experiments; read-out: PGF2α production in h-CM cells (EC50)
Description: (§4) Measurement of prostaglandins in human ciliary muscle and Chinese hamster ovary cells expressing B2 receptors
(§5) This involved stimulating h-CM cells and CHO-B2 cells with various concentrations of test peptides and measuring the release of various PGs in the extracellular medium. The concentration-dependent effects of these peptides on total PGs, and specifically PGE2, PGF2α, and PGD2 release, were studied. Cells were grown as a monolayer in a 24-well plate (precoated with fibronectin) to confluence and subsequently serum-starved overnight before the experiment. On the day of the experiment, just before the drug was added, the wells were aspirated completely, and 990 µl basal medium and 10 µl 100× series of concentrations of the different peptide agonists were added to achieve the desired final concentrations of each compound (e.g., 0.1 nM to 10 µM). […] At the end of the incubation period, the cellular supernatants were collected and stored at −80 °C or used immediately to determine the PG content. Cell supernatants were tested for total PG levels and sub-species of PGs (PGE2, PGF2α, and PGD2) using specific competitive enzyme immunoassays (Cayman Chemical Co., Ann Arbor, MI) as directed in the manufacturer’s recommended protocols using the supplied standards and reagents. The limits of detection for various PGs were as follows: total PGs=29 pg/ml; PGE2=15 pg/ml; PGF2α=9 pg/ml; PGD2=200 pg/ml.

rabbit eyes = experiment: IOP after intravitreal injection in Dutch-Belt rabbits; format: in vivo, pigmented Dutch-Belt rabbit; conditions: for IOP reduction, rabbit: 50 µg intravitreal, n=7–10
Description: (§1) Intraocular pressure measurements
(§2) To extend our in vitro observations of the high density of B2-receptor protein in human and cynomolgus monkey ciliary muscle and non-pigmented ciliary epithelium, we studied the effects of topically administered BK (100 µg total dose in a sterile vehicle) on IOP in normotensive and TM-ablated hypertensive eyes of these animals. […] However, since we could not subject the monkeys to additional studies involving BK delivery to the eye interior, it was decided that intravitreal (ivt) injection of BK into pigmented Dutch-Belt rabbits would be worth pursuing. Thus, after light corneal anesthesia with 0.1% proparacaine, basal IOPs were determined in up to 10 Dutch-Belt rabbits using an Alcon Pneumotonometer (Alcon Laboratories Inc., Fort Worth, TX). After this time, 50 µg of BK (B2 agonist) or Des-Arg^9-BK (B1 agonist) in 20 µl of sterile basal salt solution (BSS plus), or just BSS plus vehicle, was injected ivt into one eye of each rabbit and the IOP determined at various times thereafter. Authors confirm adherence to the ARVO Statement for Animals in Ophthalmic and Vision Research, with all animal studies conducted according the guidelines for Animal Care and Use at Alcon Research Ltd.
Figure 8 Time-course of changes in rabbit intraocular pressure (IOP) with different kinin peptide agonists. Three groups of Dutch-Belt rabbits (n=7–10/group) were injected ivt in one eye with either vehicle or 50 µg of BK or 50 µg of Des-Arg^9-BK dissolved in the vehicle and the IOP monitored over time. Data are mean±SEM.

h-TM cells = conditions: ref [23]; cited from earlier work
pro-MMP-3, h-CM cells = experiment: pro-MMP-3 release from h-CM cells; format: cell-based, human; conditions: BK 10 nM to 1 µM, 24 h at 37 °C; n=5
Description: Measurement of extracellular signal-regulated kinase-1/2 phosphorylation and pro-matrix metalloproteinase production
The release of pro-MMP-1/2/3 in the extracellular medium of h-CM cells exposed to kinin’s, for 24 h at 37 °C [29, 30] was studied next. Thus, h-CM cells isolated from multiple human donor eyes were cultured as described above and then serum-starved for 24 h prior to the addition of any test compound. Cells were incubated with the vehicle or test compound for 24 hours at 37 °C after which the medium was collected and concentrated ten-fold using Centricon concentrators (Millipore Corp., Bellireca, MA). Equal volumes of this concentrate were loaded on 10% SDS-polyacrylamide gels (SDS-PAGE) and the proteins separated and transferred to nitrocellulose membranes. The membranes were then blocked with 5% non-fat dry milk (Bio-Rad Laboratories, Hercules, CA) followed by incubation with antibodies to pro-MMP-1, pro-MMP-2, or pro-MMP-3 for 12 hours at 4 °C with gentle shaking. After washing, these membranes were incubated with appropriate secondary antibodies (HRP-conjugated; dilution 1:3000) for 1 hour at 20 °C. […] For chemiluminescent detection, the membranes were treated with enhanced chemiluminescent reagent (Amersham Pharmacia, Piscataway, NJ) and the signal was quantified using a Bio-Rad Versadoc imaging system (Bio-Rad Laboratories, Hercules, CA).

cynomolgus monkey eyes [2] = experiment: IOP after topical ocular dosing in cynomolgus monkeys; format: in vivo; conditions: for IOP change (% of control) / IOP: 100 µg topical
Description: as §1, §2

CHO-B2 cells = format: cell-based, Chinese hamster ovary cells, human cloned B2 receptor; conditions: 1 h at 37 °C; enzyme immunoassay; mean ± SEM, 3 to 6 experiments; read-out: PGF2α production in CHO-B2 cells (EC50)
Description: as §4, §5

[3] = cited from earlier work
Text: (§3) Despite the presence of the kallikrein/kinin enzyme and receptor system in the h-CM tissue and cells, with B2-receptor immunoreactivity also found in the cynomolgus monkey CM (Figure 2B), the physiologic roles of BK and its receptors in this tissue and cells remain to be elucidated. Indeed, there are conflicting reports in the literature regarding the functions and involvement of BK in modulating IOP in various animal models.

[4] = system: isolated perfused bovine eyes; conditions: ref [16]; cited from earlier work
Text: as §3

albino rabbits = conditions: topical dosing, ref [8]; cited from earlier work
Text: as §3

[5] = system: isolated perfused human and bovine anterior eye segments; conditions: ref [15]; cited from earlier work
Text: as §3

cynomolgus monkey eyes [6] = conditions: intracameral, ref [12], cited from earlier work
Text: as §3

primary h-CM cells = format: cell-based, human
Description: as §4, §5

[7] = normal pressure eyes, 1 h, mean ± SEM, twelve monkeys
[8] = normal pressure eyes, 3 h, mean ± SEM, twelve monkeys
[9] = normal pressure eyes, 6 h, mean ± SEM, twelve monkeys
[10] = normal pressure eyes, 24 h, mean ± SEM, twelve monkeys
[11] = ocular hypertensive eyes, 1 h, mean ± SEM, twelve monkeys
[12] = ocular hypertensive eyes, 3 h, mean ± SEM, twelve monkeys
[13] = ocular hypertensive eyes, 6 h, mean ± SEM, twelve monkeys
[14] = ocular hypertensive eyes, 24 h, mean ± SEM, twelve monkeys
[15] = intracameral injection, ref [10],[14]

Substance: H-RPPGFSPFR-OH [BK]
- Production of NO and cGMP [1]: can elicit production of NO and cGMP
- EC50 (h-CM cells): 15.9 ± 9.2 nM
- IOP reduction, rabbit (rabbit eyes; 5 h post-injection): 22.9±7.3%
- IOP reduction, rabbit (rabbit eyes; 8 h post-injection (maximal)): 37.0±5.6%
- Effect on rabbit IOP (rabbit eyes; BK 50 µg intravitreal, 5–8 h post injection): time-dependent reduction in IOP; also recorded: robust lowering of the IOP
- ERK1/2 phosphorylation in h-TM cells (h-TM cells): stimulate ERK1/2 phosphorylation
- pro-MMP-3 release vs basal level (pro-MMP-3, h-CM cells): 1.41±0.09 fold
- IOP effect of topical BK (cynomolgus monkey eyes [2]; 100 µg topical ocular, conscious cynomolgus monkeys, normotensive and hypertensive eyes): failed to alter IOP; also recorded: no remarkable changes in IOP; also recorded: no alteration in IOP; also recorded: failed to modulate IOP
- IOP change (% of control) (cynomolgus monkey eyes [2]; normal pressure eyes, 0 h (baseline)): 0%
- IOP (cynomolgus monkey eyes [2]; normal pressure eyes, 0 h (baseline), mean ± SEM, twelve monkeys): 27.1±1.0 mmHg
- IOP (cynomolgus monkey eyes [2]; [7]): 27.1±1.1 mmHg
- IOP change (% of control) (cynomolgus monkey eyes [2]; [7]): 0.2±2.5%
- IOP (cynomolgus monkey eyes [2]; [8]): 26.6±0.7 mmHg
- IOP change (% of control) (cynomolgus monkey eyes [2]; [8]): −1.0±2.9%
- IOP (cynomolgus monkey eyes [2]; [9]): 27.2±1.1 mmHg
- IOP change (% of control) (cynomolgus monkey eyes [2]; [9]): 0.8±2.3%
- IOP (cynomolgus monkey eyes [2]; [10]): 27.8±1.4 mmHg
- IOP change (% of control) (cynomolgus monkey eyes [2]; [10]): 2.4±3.3%
- IOP change (% of control) (cynomolgus monkey eyes [2]; ocular hypertensive eyes, 0 h (baseline)): 0%
- IOP (cynomolgus monkey eyes [2]; ocular hypertensive eyes, 0 h (baseline), mean ± SEM, twelve monkeys): 36.8±1.6 mmHg
- IOP (cynomolgus monkey eyes [2]; [11]): 35.9±1.8 mmHg
- IOP change (% of control) (cynomolgus monkey eyes [2]; [11]): −2.6±1.5%
- IOP (cynomolgus monkey eyes [2]; [12]): 35.7±1.6 mmHg
- IOP change (% of control) (cynomolgus monkey eyes [2]; [12]): −2.7±3.3%
- IOP (cynomolgus monkey eyes [2]; [13]): 36.6±1.7 mmHg
- IOP change (% of control) (cynomolgus monkey eyes [2]; [13]): −0.4±3.0%
- IOP (cynomolgus monkey eyes [2]; [14]): 35.3±1.6 mmHg
- IOP change (% of control) (cynomolgus monkey eyes [2]; [14]): −4.1±2.3%
- EC50 (CHO-B2 cells): 0.0321 ± 0.0122 nM
- IOP effect [3, 15]: raised IOP
- Pupil effect [3, 15]: caused intense miosis
- IOP effect ([3]; intravenous infusion, ref [9]): lowered IOP
- Aqueous humor inflow and outflow ([3]; ref [11]): increased aqueous humor inflow and outflow
- Outflow [4]: apparent increase in outflow
- IOP effect (albino rabbits): lowered IOP
- Outflow facility [5]: decreased outflow facility
- Aqueous humor outflow (cynomolgus monkey eyes [6]; no ciliary muscle retrodisplacement): no effect on aqueous humor outflow
- Aqueous humor outflow (cynomolgus monkey eyes [6]; with ciliary muscle retrodisplacement): decreased outflow
- EC50 (primary h-CM cells; 1 h at 37 °C, enzyme immunoassay, mean ± SEM, 3 to 6 experiments, read-out: Total PGs production in h-CM cells (EC50)): 8.6 ± 2.4 nM
- BK-induced total PGs production/secretion, h-CM cells (primary h-CM cells; BK 100 nM (0.1 µM) to 10 µM, n=8): 393.3 ± 24.2 pg/mL and 393.3 pg/mL
- Total PG secretion above basal levels (primary h-CM cells; BK 1 µM, Figure 6A, single experiment): substantially increased the PGs secreted above the basal levels
